Reference: patent publication US20050090433A1 (priority 2002, published 2005)
In brackets after ≈: the same amount, converted by molar mass.

Columns and labels:
Group B streptococcus = test: Dalbavancin MIC, baseline isolates of SSTI trial; type: cell-based
[1] = system: Gram-positive isolates, including MRSA; test: Dalbavancin MIC, Gram-positive isolates of SSTI trial; type: cell-based; conditions: Staphylococcus aureus, read-out: MICs against Gram-positive isolates, including MRSA
[2] = Pharmacokinetics and renal excretion in healthy subjects; conditions: human, in vivo, iv, 1000 mg; for half-life: healthy subjects, single 1000 mg IV
Method: Blood samples were drawn into heparinized tubes and centrifuged. Plasma was separated and stored frozen at −20° C. until time of assay. Plasma and urine samples were assayed for dalbavancin using validated LC/MS/MS methods. […] The peak concentration (Cmax) values were obtained directly from the observed data. The area under the plasma concentration-time curve (AUC) was calculated using the linear trapezoidal rule. Clearance (CL) was computed as dose/AUC. The elimination half life (t1/2) was estimated by linear regression of the log-linear portion of the log concentration versus time curve. Estimates of the volume of distribution (Vz) was calculated using the regression parameters, while the volume of distribution at steady state (Vss) was calculated from the area under the first moment curve (AUMC) multiplied by the dose and divided by AUC. The cumulative amount of dalbavancin excreted in urine was determined as the integrand of the urine excretion rate (AURC). CLR or renal clearance, was calculated as the ratio: CLR=AURC/AUC.

## CN[C@H]1C(=O)N[C@@H]2Cc3ccc(cc3)Oc3cc4cc(c3O[C@@H]3O[C@H](C(=O)O)[C@@H](O)[C@H](O)[C@H]3NC(=O)CCCCCCCCC(C)C)Oc3ccc(cc3Cl)[C@@H](O)[C@@H]3NC(=O)[C@H](NC(=O)[C@@H]4NC(=O)[C@@H](NC2=O)c2cc(cc(O)c2Cl)Oc2cc1ccc2O)c1ccc(O)c(c1)-c1c(O[C@H]2O[C@H](CO)[C@@H](O)[C@H](O)[C@@H]2O)cc(O)cc1[C@@H](C(=O)NCCCN(C)C)NC3=O [Dalbavancin]
Group B streptococcus; MITT, standard of care group
  Dalbavancin MIC, Group B streptococcus: 2 (0.016) mg/L
Group B streptococcus; Streptococcus, read-out: Dalbavancin MIC, Group B streptococcus, MITT, two-dose group
  MIC: 0.016 µg/mL (≈ 8.81 nM)
[1]
  MIC: 0.016 to 0.25 µg/mL (≈ 8.81 to 138 nM)
[2]; both sexes
  AUC: 23800 µg·h/mL
  clearance: 0.718 mL/min
  half-life: 9 to 12 days
[2]; both sexes, Apparent volume of distribution
  Vd: > 10 L
[2]; both sexes, CLR
  CL renal: 0.3 mL/min
[2]; both sexes, VSS
  Vd: 11.5 L
[2]; both sexes, VZ
  Vd: 16 L
[2]; both sexes, mean
  half-life: 10.7 days
[2]; both
  CL: 0.0431 L/h
  CLR: 0.0181 L/h
